Experimental data as given in US11172674B2, “Preservation solutions” (ORGAN PRESERVATION SOLUTIONS LIMITED, priority 2017, dated 2021).

How the values were obtained:
[1] = system: human cells; settings: Heeneman et al 1993; cited from earlier work
[2] = Stability of aspirin in preservation solution on storage (HPLC); assay type: physicochemical
Source text: FIG. 1 illustrates the stability of aspirin in a preservation solution: HPLC methods were developed to measure the concentration of aspirin and salicylic acid in the Prior Art solution. Aspirin is rapidly hydrolysed to salicylic acid and acetic acid during storage. […] As an example, FIG. 1 illustrates that storage of the solution for 8 weeks results in 100% of the aspirin converting to salicylic acid and the production of equimolar amounts of damaging acetic acid.

Row | Structure (SMILES) | concentration toxic to human cells [1] [µM] | parent compound remaining ([2]; Prior Art solution, after 8 weeks storage, HPLC) | aspirin converting to salicylic acid ([2]; storage of the prior art solution for 8 weeks) [%]
1 | N [ammonia] | 300 |  | 
2 | CC(=O)Oc1ccccc1C(=O)O [aspirin, acetylsalicylic acid] |  | none of the parent compound remains | 100
